Measured values from the supplement of paper PMC10307832.

How the values were obtained:
Assay in all cases: relative viability (nuclei count vs DMSO), 5 days (fraction); higher = more cells survive
[1] = compound: C1/C(=C\C2=CC=CS2)/C(=O)/C(=C/C3=CC=CS3)/C1
Outline: (§1)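 A plate was accepted only when its control CV was below 25% and the cells had doubled at least once. Viability is defined from nuclear counts as treated wells divided by vehicle wells, with the median taken across plates. That median covers lung cancer cell lines grown in 1536-well plates, dosed by pinning at five √10-spaced library-drug concentrations, and counted in MetaXpress from 4× Hoechst images after 5 days.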

[2] = compound: C1=CC(=CC=C1C2=CC(=C(S2)NC(=O)N)C(=O)N)F [TPCA-1]
Outline: as §1

[3] = compound: C[C@]12O[C@H](C[C@]1(O)CO)n1c3ccccc3c3c4c(c5c6ccccc6n2c5c31)CNC4=O [Lestaurtinib]
Outline: as §1

[4] = compound: C1/C(=C\C2=CC=CS2)/C(=O)/C(=C/C3=CC=CS3)/C1 + Cc1nc(NC(=O)N2CCC[C@H]2C(N)=O)sc1-c1ccnc(C(C)(C)C(F)(F)F)c1 [Alpelisib] (partner 2 µM)
Outline: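 Cells from lung cancer lines were seeded into 1536-well plates and, one day later, dosed by pin tool. Treatments were either a single drug or a fixed dose of an anchor drug with five library-drug doses (not always all listed) in √10 steps. After 5 days, nuclei were stained in a one-step fixation (final 0.05% Triton X-100, 1% formaldehyde, 1 ug/ml Hoechst) and counted on 4× images, and relative viability is the treated-to-vehicle nuclei ratio, as the median of duplicate plates.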

Cell Line	relative viability ([1]; 0.2 µM)	relative viability ([1]; 0.6325 µM)	relative viability ([1]; 2 µM)	relative viability ([1]; 6.325 µM)	relative viability ([1]; 20 µM)	relative viability ([2]; 0.04 µM)	relative viability ([2]; 0.1265 µM)	relative viability ([2]; 0.4 µM)	relative viability ([2]; 1.265 µM)	relative viability ([2]; 4 µM)	relative viability ([3]; 0.005 µM)	relative viability ([3]; 0.01581 µM)	relative viability ([3]; 0.05 µM)	relative viability ([3]; 0.1581 µM)	relative viability ([3]; 0.5 µM)	relative viability ([4]; first compound 0.2 µM)	relative viability ([4]; first compound 0.6325 µM)	relative viability ([4]; first compound 2 µM)	relative viability ([4]; first compound 6.325 µM)	relative viability ([4]; first compound 20 µM)
HCC-44	1.02	1	0.989	0.898	0.962	1.01	0.933	0.965	0.643	0.901	0.923	1.16	0.941	1.11	0.845	0.751	0.856	0.813	0.668	0.799
SW 1573	1.05	0.996	1.08	0.891	0.99	1.18	0.91	0.985	0.947	0.858	1.05	0.989	0.782	0.571	0.401	0.785	0.905	0.838	0.547	0.757
PC-3 [JPC-3]	1.04	1.06	1.03	0.949	1.08	1.04	1	1.04	1.04	0.951	1.07	1.08	0.957	0.77	0.624	0.994	0.995	0.998	0.97	1.05
LOU-NH91	1.02	0.991	1.09	0.874	1.02	1.05	0.943	0.981	0.878	0.851	0.946	1	0.865	0.65	0.423	0.776	0.746	0.769	0.671	0.729
PC-14	1.03	1.06	1	0.899	0.995	1.03	0.946	1.06	1.04	0.838	1.06	1.11	0.848	0.741	0.344	0.95	0.898	0.889	0.676	0.995
NCI-H2087	1.13	0.872	1.2	0.783	1.01	1.18	0.966	0.982	0.915	0.542	1.03	0.951	0.816	0.834	0.367	1.24	1.14	1.04	0.917	1.11
LU99A	1	0.966	1.02	0.788	0.892	1.1	0.909	0.989	0.919	0.437	0.892	0.893	0.625	0.489	0.251	0.499	0.547	0.545	0.476	0.454
BEN	0.935	1	1.11	0.848	0.934	1.01	0.873	1.05	1.08	0.774	0.993	1.11	0.888	0.8	0.278	1.02	0.981	0.977	0.972	1.07
SK-LU-1	1.12	1.09	1.07	0.91	1.1	1.13	0.9	1.07	0.836	0.632	1.07	0.883	0.531	0.563	0.263	1.18	1.07	1.11	0.817	1.06
NCI-H1975	0.99	0.891	0.886	0.838	0.969	0.974	0.887	0.932	0.87	0.576	1.04	1.03	0.829	0.774	0.649	0.736	0.627	0.617	0.592	0.62
RERF-LC-KJ	0.984	1.04	1.02	0.878	0.927	1.02	0.895	0.982	0.93	0.826	1.03	1.09	0.847	0.827	0.558	0.73	0.89	0.748	0.705	0.815
A549	0.987	0.983	1.01	0.772	0.931	1.05	0.956	0.955	0.871	0.782	1.04	1	0.791	0.521	0.162	0.608	0.867	0.746	0.483	0.73
NCI-H441	1.14	1.24	1.14	0.867	0.995	1.22	0.816	0.882	0.704	0.425	1.02	1.05	0.611	0.61	0.438	0.819	0.832	0.719	0.578	0.737
LCLC-103H	1.04	1.02	1.09	0.87	0.986	1.1	0.933	1.06	0.941	1.02	1.1	1.08	0.937	0.693	0.519	1.05	0.926	1.02	0.73	0.956
HCC-78	0.972	0.927	1.25	0.823	0.908	0.972	0.834	0.892	0.788	0.391	0.823	0.943	0.547	0.577	0.44	0.349	0.313	0.359	0.321	0.342
NCI-H1915	1.02	1.04	0.99	0.93	0.97	1.1	0.984	1.05	0.896	0.608	1.01	1.05	0.927	0.642	0.344	1.05	1.06	1.09	0.976	1.03
